Patent US20050074810A1, “Method for non-invasilvely determining the relative levels of two biological substances” (priority 2001, published 2005)

Assay: In vitro reverse iontophoretic extraction of valproate and glutamate (Example 1)
Type: in vitro ADME, pig
Conditions: glutamate 60 μM
Protocol: The cathodal chamber was sampled only at the end of 5 hours of current passage.
Subsequent to this first period of 5 hours at 0.4 mA, a reduced current of 0.1 mA was passed for the next 19 hours, at the end of which both anodal and cathodal chambers were sampled.
The total experiment therefore lasted 24 hours.

[1] = subdermal valproate 21 μM, 4-5 h, 0.4 mA
[2] = subdermal valproate 21 μM, 5-24 h, 0.1 mA
[3] = subdermal valproate 35 μM, 4-5 h, 0.4 mA
[4] = subdermal valproate 35 μM, 5-24 h, 0.1 mA
[5] = subdermal valproate 70 μM, 4-5 h, 0.4 mA
[6] = subdermal valproate 70 μM, 5-24 h, 0.1 mA
[7] = subdermal valproate 104.5 μM, 4-5 h, 0.4 mA
[8] = subdermal valproate 104.5 μM, 5-24 h, 0.1 mA

In the case of `N[C@@H](CCC(=O)O)C(=O)O` [Glutamate, glutamate], the “Transport number (×10^6)” value (subdermal valproate 21 μM, 0-1 h) is reported as 7.89 ± 4.51 ×10^6, the Extraction flux (subdermal valproate 21 μM, 0-1 h, 0.4 mA) is reported as 118 pmoles · h^−1 · cm^−2 and the “Transport number (×10^6)” value (subdermal valproate 21 μM, 1-2 h) is reported as 20.6 ± 7.92 ×10^6. The Extraction flux (subdermal valproate 21 μM, 1-2 h, 0.4 mA) was 308 pmoles · h^−1 · cm^−2, the “Transport number (×10^6)” value (subdermal valproate 21 μM, 2-3 h) was 29.5 ± 7.38 ×10^6 and the Extraction flux (subdermal valproate 21 μM, 2-3 h, 0.4 mA) was 440 pmoles · h^−1 · cm^−2. For the same compound, the “Transport number (×10^6)” value (subdermal valproate 21 μM, 3-4 h) was 32.1 ± 5.77 ×10^6, the Extraction flux (subdermal valproate 21 μM, 3-4 h, 0.4 mA) was 479 pmoles · h^−1 · cm^−2 and the Extraction flux [1] was 570 pmoles · h^−1 · cm^−2. The “Transport number (×10^6)” value [1] was 38.2 ± 5.19 ×10^6, the Extraction flux [2] was 142 pmoles · h^−1 · cm^−2 and the “Transport number (×10^6)” value [2] was 38.1 ± 6.24 ×10^6. For the same compound, the “Transport number (×10^6)” value (subdermal valproate 35 μM, 0-1 h) was 10.4 ± 5.47 ×10^6, the Extraction flux (subdermal valproate 35 μM, 0-1 h, 0.4 mA) was 155 pmoles · h^−1 · cm^−2 and the “Transport number (×10^6)” value (subdermal valproate 35 μM, 1-2 h) was 24.6 ± 5.83 ×10^6. The Extraction flux (subdermal valproate 35 μM, 1-2 h, 0.4 mA) was 367 pmoles · h^−1 · cm^−2, the “Transport number (×10^6)” value (subdermal valproate 35 μM, 2-3 h) was 32.4 ± 5.71 ×10^6 and the Extraction flux (subdermal valproate 35 μM, 2-3 h, 0.4 mA) was 484 pmoles · h^−1 · cm^−2. The “Transport number (×10^6)” value (subdermal valproate 35 μM, 3-4 h) was 38.2 ± 2.84 ×10^6, the Extraction flux (subdermal valproate 35 μM, 3-4 h, 0.4 mA) was 571 pmoles · h^−1 · cm^−2 and the Extraction flux [3] was 588 pmoles · h^−1 · cm^−2. The “Transport number (×10^6)” value [3] was 39.4 ± 3.28 ×10^6, the Extraction flux [4] was 143 pmoles · h^−1 · cm^−2 and the “Transport number (×10^6)” value [4] was 38.3 ± 4.24 ×10^6. The “Transport number (×10^6)” value (subdermal valproate 70 μM, 0-1 h) was 5.92 ± 3.03 ×10^6, the Extraction flux (subdermal valproate 70 μM, 0-1 h, 0.4 mA) was 88 pmoles · h^−1 · cm^−2 and the “Transport number (×10^6)” value (subdermal valproate 70 μM, 1-2 h) was 17.9 ± 6.88 ×10^6. For the same compound, the Extraction flux (subdermal valproate 70 μM, 1-2 h, 0.4 mA) was 267 pmoles · h^−1 · cm^−2, the “Transport number (×10^6)” value (subdermal valproate 70 μM, 2-3 h) was 26.0 ± 6.32 ×10^6 and the Extraction flux (subdermal valproate 70 μM, 2-3 h, 0.4 mA) was 388 pmoles · h^−1 · cm^−2. The “Transport number (×10^6)” value (subdermal valproate 70 μM, 3-4 h) was 33.1 ± 6.80 ×10^6, the Extraction flux (subdermal valproate 70 μM, 3-4 h, 0.4 mA) was 494 pmoles · h^−1 · cm^−2 and the Extraction flux [5] was 524 pmoles · h^−1 · cm^−2. For the same compound, the “Transport number (×10^6)” value [5] was 35.1 ± 5.52 ×10^6, the Extraction flux [6] was 146 pmoles · h^−1 · cm^−2 and the “Transport number (×10^6)” value [6] was 39.2 ± 6.45 ×10^6. For the same compound, the “Transport number (×10^6)” value (subdermal valproate 104.5 μM, 0-1 h) was 9.92 ± 4.20 ×10^6, the Extraction flux (subdermal valproate 104.5 μM, 0-1 h, 0.4 mA) was 148 pmoles · h^−1 · cm^−2 and the “Transport number (×10^6)” value (subdermal valproate 104.5 μM, 1-2 h) was 24.2 ± 4.79 ×10^6. For the same compound, the Extraction flux (subdermal valproate 104.5 μM, 1-2 h, 0.4 mA) was 361 pmoles · h^−1 · cm^−2, the “Transport number (×10^6)” value (subdermal valproate 104.5 μM, 2-3 h) was 32.8 ± 3.60 ×10^6 and the Extraction flux (subdermal valproate 104.5 μM, 2-3 h, 0.4 mA) was 490 pmoles · h^−1 · cm^−2. The “Transport number (×10^6)” value (subdermal valproate 104.5 μM, 3-4 h) was 37.9 ± 4.98 ×10^6, the Extraction flux (subdermal valproate 104.5 μM, 3-4 h, 0.4 mA) was 566 pmoles · h^−1 · cm^−2 and the Extraction flux [7] was 599 pmoles · h^−1 · cm^−2. The “Transport number (×10^6)” value [7] was 40.1 ± 5.16 ×10^6, the Extraction flux [8] was 157 pmoles · h^−1 · cm^−2 and the “Transport number (×10^6)” value [8] was 42.2 ± 6.22 ×10^6.
